This is an account of results in patent publication US10669296B2, “LXR agonists and uses thereof” (Rgenix, Inc., priority 2014, dated 2020).

Assay [1] has as its system ApoE. The assay can be described thus: ApoE gene expression analysis by qRT-PCR in MeWo cancer cells. The note with it: Homo sapiens, MeWo, 48 h; for Emax at 1 µM / Emax at 10 µM: read-out: ApoE gene expression in relation to GW3965 at 1 μM (100%). It counts as cell-based. Here is the method:
Cancer cells (MeWo) were treated in presence of drug or control (DMSO) at indicated concentrations for 48 h. RNA was extracted from whole cell lysates using the Total RNA Purification Kit (17200, Norgen, Thorold, Canada). 600 ng of total RNA was then reverse transcribed into cDNA using the Verso cDNA Synthesis Kit (AB-1453/B, Fisher Scientific). 6 ng of the resulting cDNA was then mixed with SYBR green PCR Master Mix (4309155, Applied Biosystems) and the appropriate primers. Each reaction was performed in quadruplicate, and mRNA expression was quantified by performing real-time PCR amplification using a StepOne Plus Real-Time PCR System (Applied Biosystems). GAPDH was used as an endogenous control for normalization. EC50 values were calculated using Prism6 software and plotting expression values versus drug concentration. The following primers were used: [table] The results are shown in relation to GW3965 ApoE expression at 1 μM (i.e. 100%).
In general terms: Quantitative PCR measures a nucleic acid by following its amplification.

Assay [2] relates to ApoE. The assay can be described thus: Pharmacodynamic analysis of ApoE in peripheral blood lymphocytes (qRT-PCR). The assay is classed as in vivo, mouse. The note with it: mice. Here is the method: In Vivo Dosing and Sample Collection: 6-7 week old […] received a single dose of Compound 8 at 52.6 mg/kg, formulated in 2% DMSO/20% Propylene Glycol/78% 0.5% Methylcellulose (400 cp) at a final concentration of 4.62 mg/mL by oral gavage. Bleeds were taken at 0.5 h, 2 h, 4 h, 8 h, 16 h, 24 h and 48 h. Mice were bled twice, the first bleed was drawn submandibular and the second through intracardiac puncture. Blood was collected in Dipotassium EDTA Microtainer tubes (02-669-38, Fisher). To isolate peripheral blood lymphocytes, blood samples were centrifuged at 2000 g for 5 min. After separation of the plasma, Erythrocytes were lysed in 1 mL Erythrocyte Lysis (EL) buffer (79217, Qiagen) and incubation at room temperature for 20 min. Samples were centrifuged at 400 g for 10 min, and peripheral blood lymphocytes washed once in EL buffer, followed by one wash in PBS.
ApoE Gene Expression Analysis by qRT-PCR: RNA was extracted from peripheral blood lymphocytes using the Total RNA Purification Micro Kit (35300, Norgen, Thorold, Canada). 200-300 ng of total RNA was then reverse transcribed into cDNA using the Verso cDNA synthesis Kit (AB-1453B, Fisher Scientific) and 6 ng of the resulting cDNA was mixed with SYBR Green PCR Mater Mix (4385612, Applied Biosystems) and quantitative real-time PCR amplification was performed using an ABI Prism 7900HT Real-Time PCR System (Applied Biosystems, Austin, Tex.). Each PCR reaction was carried out in quadruplicates. Gene expression was normalized to GAPDH, which was used as an endogenous control. Primers used as described in Example 86.
Results: The results of ApoE induction in vivo by compound 8 is shown in Table 9 where Pre-Dose represents endogenous levels of ApoE induction prior to dosing, n is the number of samples analyzed, and values are expressed as fold induction over pre-dose endogenous ApoE levels (normalized to 1.0). Peak induction of compound 8 is >6-fold over background at 4 h.

The subject of assay [3] is B16F10 melanoma cells. The assay is described as follows: In vivo primary tumor growth assay. Also on record: species or system mouse. To be noted: B16F10 in C57B16 mice. As to the method:
For primary tumor growth studies, 5×10^4 B16F10 melanoma cells were mixed 1:1 with matrigel and subcutaneously injected into the lower flanks of 6-week old C57B16 mice. Upon the formation of palpable tumors, 4-5 days after tumor cell injection, 10 mice were randomly assigned to groups eating a control diet or a diet supplemented with compound 8 (5 and 25 mg/kg). Tumor volume was calculated as (small diameter)^2×(large diameter)/2 and tumor growth inhibition was measured relative to vehicle control.

Assay [4] deals with Cancer cells (MeWo). The assay is described as follows: Matrigel invasion assay. To be noted: 1 μM drug, invasion 24 h. It counts as cell-based. Here is the method:
Cancer cells (MeWo) were pre-treated in presence of 1 μM drug or control (DMSO) for 72 h after which cancer cells were switched to serum-starvation in 0.2% FBS DMEM-based media for 16 h in the presence of the drug or control, respectively. Trans-well invasion chambers (354480, BD Biosciences, Bedford, Mass.) were pre-equilibrated in DMEM-based media prior to the beginning of the assay by adding 0.5 ml of starvation media to the top and bottom chambers. After 30 min, the media in the top chamber was removed, and 0.5 ml of media containing 1×10^5 cancer cells in the presence of the drug, was added into each matrigel-coated trans-well insert. Cells were allowed to invade through the matrigel-coated inserts for 24 h at 37° C.

For assay [5], the system named is Aβ plaque burden. The note with it: mouse model of Alzheimer's disease, Jiang et al., Neuron 2008; cited from earlier work.
In assay [6] the target is LXRβ (Homo sapiens (Human), UniProt P55055). The assay is described as follows: ligand sensing assay (LiSA), LXRβ. To be noted: ratio of EC50 values. It counts as biochemical. From the text: As used herein, reference to the activity of an LXR agonist at LXRα and LXRβ refer to the activity as measured using the ligand sensing assay (LiSA) described in Spencer et al. J. Med. Chem. 2001, 44, 886-897, incorporated herein by reference. […] For example, the methods of the invention can be performed using an LXRβ agonist having activity for LXRβ that is at least 3-fold greater than the activity of the agonist for LXRα, or having activity for LXRβ that is at least 10-fold greater than the activity of the agonist for LXRα, or having activity for LXRβ that is at least 100-fold greater than the activity of the agonist for LXRα, or having activity for LXRβ that is at least within 3-fold of the activity of the agonist for LXRα. The term “greater activity” in the LiSA assay refers to a lower EC50.

Like-named read-outs stand apart in the source and are kept apart here. Where only a bound is given, the exact number is not on record here.

Chain of LXRβ (P55055 whole entry): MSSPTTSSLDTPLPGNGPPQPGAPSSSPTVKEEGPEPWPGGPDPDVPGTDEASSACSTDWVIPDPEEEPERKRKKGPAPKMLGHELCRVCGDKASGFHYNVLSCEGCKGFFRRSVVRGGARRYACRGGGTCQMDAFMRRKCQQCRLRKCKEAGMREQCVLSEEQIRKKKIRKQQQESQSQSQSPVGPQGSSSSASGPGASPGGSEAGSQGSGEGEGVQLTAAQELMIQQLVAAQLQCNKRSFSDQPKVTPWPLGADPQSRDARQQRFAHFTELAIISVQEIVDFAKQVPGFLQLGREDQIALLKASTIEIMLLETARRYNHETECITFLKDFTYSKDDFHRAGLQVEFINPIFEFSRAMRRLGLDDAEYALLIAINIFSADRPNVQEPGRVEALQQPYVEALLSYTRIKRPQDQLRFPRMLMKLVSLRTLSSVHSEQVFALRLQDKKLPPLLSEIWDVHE

Regarding `CS(=O)(=O)c1cc(OCCCN(Cc2cccc(C(F)(F)F)c2Cl)CC(c2ccccc2)c2ccccc2)cc(F)c1CO` [Compound 8, {4-[3-({[2-chloro-3-(trifluoromethyl)phenyl]methyl}(2,2-diphenylethyl)amino)propoxy]-2-fluoro-6-methanesulfonylphenyl}methanol], in assay [1], the EC50 (commonly the concentration that produces a half-maximal response) was under 1 µM. Besides, the Emax at 1 µM in assay [1] is over 80%. Moreover, in assay [1], the Emax at 10 µM is over 80%. In addition, the “Fold ApoE Induction Over Pre-Dose Level (+/−S.D.)” value is given as 1.3 (+/−0.3) fold in assay [2] (0.5 h after single oral dose 52.6 mg/kg); 2.7 (+/−0.5) fold in assay [2] (2 h after single oral dose 52.6 mg/kg); 6.3 (+/−1.8) fold in assay [2] (4 h after single oral dose 52.6 mg/kg); 3.8 (+/−2.4) fold in assay [2] (8 h after single oral dose 52.6 mg/kg); 0.3 (+/−0.4) fold in assay [2] (16 h after single oral dose 52.6 mg/kg); 0.4 (+/−0.6) fold in assay [2] (24 h after single oral dose 52.6 mg/kg). Moreover, the “Fold ApoE Induction Over Pre-Dose Level (+/−S.D.)” value in assay [2] (48 h after single oral dose 52.6 mg/kg) is reported as 0.1 (+/−0.3) fold. For the same compound, the entries for the “Mean tumor volume (mm3) (+/−S.E.M.)” value in assay [3] (5 mg/kg in diet) and in assay [3] (25 mg/kg in diet) were 686 (+/−97) mm3 and 475 (+/−56) mm3, respectively. Also, the “Tumor growth inhibition % of control (+/−S.E.M.)” value in assay [3] (5 mg/kg in diet) is 13% (+/−12%). Further, the “% of Cells Migrated Compared to Control” value in assay [4] is under 50%.
Turning to `C[C@H](CCO[C@H]1CCCN(S(C)(=O)=O)C1)N(Cc1cccc(C(F)(F)F)c1Cl)CC(c1ccccc1)c1ccccc1` [Compound 31, {[2-chloro-3-(trifluoromethyl)phenyl]methyl}(2,2-diphenylethyl)[(2R)-4-{[(3S)-1-methanesulfonylpiperidin-3-yl]oxy}butan-2-yl]amine], in assay [1], the EC50 is under 1 µM, the Emax at 1 µM is over 40% and the Emax at 10 µM was over 80%. In assay [4], the “% of Cells Migrated Compared to Control” value is given as under 70%.
Regarding `O=C(O)Cc1cccc(OCCCN(Cc2cccc(C(F)(F)F)c2Cl)CC(c2ccccc2)c2ccccc2)c1` [GW3965, reference compound], in assay [1], the EC50 was under 0.3 µM and the Emax at 10 µM was over 40%. In addition, the Emax at 1 µM in assay [1] (reference value) stood at 100%. The amyloid-beta plaques entry in assay [5] is “therapeutic reduction of amyloid-beta plaques”. Moreover, the “fold greater activity for LXRβ compared to LXRα” value in assay [6] was “approximately 6 fold”. Moreover, in assay [4], the “% of Cells Migrated Compared to Control” value was under 70%.
`CC(CCOc1cccc(CC(=O)O)c1)N(Cc1cccc(C(F)(F)F)c1Cl)CC(c1ccccc1)c1ccccc1` (stereo not shown) [SB742881, reference compound]: in assay [1], the EC50 was under 1 µM, the Emax at 1 µM is over 40% and the Emax at 10 µM is over 40%. The “% of Cells Migrated Compared to Control” value in assay [4] was under 70%.
